The EC50 is the concentration that produces a half-maximal response.

The assay is described as follows: T3 promoter assay cell test (luciferase reporter under a thyroid hormone-regulated promoter). Type of assay: cell-based. The following applies: Homo sapiens; HepG2 luciferase reporter; costimulator retinolic acid; incubation 48 or 72 hours; four replicates. How it is done:
The efficacy of the compounds according to the invention can be tested, for example, in vitro by the T3 promoter assay cell test described below:
The test is carried out using a stably transfected, human HepG2 hepatocarcinoma cell which expresses a luciferase gene under the control of a thyroid hormone-regulated promoter. The vector used for the transfection carries a minimal thymidine kinase promoter ahead of the luciferase gene having a thyroid hormone-responsive element (TRE) which consists of two inverted palindromes of 12 bp each and one 8 bp spacer.
For the test, the cell cultures are inoculated into 96 well plates in Eagle's Minimal Essential Medium with the following additives: glutamine, tricine [N-(tris-(hydroxymethyl)-methyl)-glycine], sodium pyruvate, non-essential amino acids (L-Ala, L-Asn, L-Asp, L-Pro, L-Ser, L-Glu, Gly), insulin, selenium and transferrin. The cultures are grown at 37° C. and under a 10% CO2 atmosphere for 48 hours. Serial dilutions of test substance or reference compound (T3, T4) and costimulator retinolic acid are then added to the test cultures and these are incubated for a further 48 or 72 hours as beforehand. Each substance concentration is tested in four replicates. For the determination of the luciferase induced by T3 or other substances, the cells are then lysed by addition of a Triton- and […] buffer (Promega) and immediately measured luminometrically. The EC50 values of each compound are calculated.
(Reporter assays use an easily measured gene product as a stand-in for the process of interest.)

As for `CCCc1n[nH]c2ccc(Oc3c(C)cc(N)cc3C)cc12` [Example 4, 5-(4-Amino-2,6-dimethylphenoxy)-3-propyl-1H-indazole], the midpoint of the response, the EC50, lay at 115 nM. That is a sub-micromolar value.

`CCOC(=O)C(=O)Nc1cc(C)c(Oc2ccc3[nH]nc(C(C)C)c3c2)c(C)c1` [Example 9, Ethyl ({3,5-dimethyl-4-[(3-isopropyl-1H-indazol-5-yl)oxy]phenyl}amino)(oxo)-acetate] showed an EC50 of 190 nM.

Turning to `CCCCCc1n[nH]c2ccc(Oc3c(C)cc(NC(=O)C(=O)OCC)cc3C)cc12` [Example 11, Ethyl ({3,5-dimethyl-4-[(3-pentyl-1H-indazol-5-yl)oxy]phenyl}amino)(oxo)acetate], the EC50 was determined as 10 nM.

As to `CCCCCc1n[nH]c2ccc(Oc3c(C)cc(NC(=O)C(=O)O)cc3C)cc12` [Example 11a, ({3,5-dimethyl-4-[(3-pentyl-1H-indazol-5-yl)oxy]phenyl}amino)(oxo)acetic acid], the half-maximal effective concentration (EC50) stood at 13 nM. The EC50 values of the last two molecules are within 1.5-fold of each other.

`CCCCCc1n[nH]c2ccc(Oc3c(C)cc(NCC(=O)OCC)cc3C)cc12` [Example 16, Ethyl ({3,5-dimethyl-4-[(3-pentyl-1H-indazol-5-yl)oxy]phenyl}amino)acetate] registered an EC50 of 10 nM.

Take `CCCCCc1n[nH]c2ccc(Oc3c(C)cc(NC(=O)CC(=O)OC)cc3C)cc12` [Example 18, Methyl-({3,5-dimethyl-4-[(3-pentyl-1H-indazol-5-yl)oxy]phenyl}amino)-3-(oxo)-propionate]: the EC50 is 18 nM.
